In ChEMBL document CHEMBL1201862, “PubChem BioAssay data set” (2004):
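Tested at 5 concentrations; 48 h exposure; 96-well plates; endpoints linearly interpolated, else capped at highest concentration. GI50 = concentration required for 50% inhibition of growth.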 Activity calls are given as the source filed them. No stated cut-off is given here; in the data, active = GI50 up to about 1.1 µM and inactive = higher. Where a SMILES comes first, the peptide text is derived from it. [ ]: non-standard residue; d: D form. The star is where a group is joined. mTyr = N[CH](Cc1cccc(O)c1)C(=O)O; Cbz = O=C(OCc1ccccc1)*; OBn = c1ccc(CO*)cc1

Key:
Experiment in all cases: DTP human tumour cell line panel, 48 h
SW-620 = test system: SW-620
U-251 = test system: U-251
MOLT-4 = test system: MOLT-4
NCI-H23 = test system: NCI-H23
Hs-578T = test system: Hs-578T
EKVX = test system: EKVX
CCRF-CEM = test system: CCRF-CEM
DU-145 = test system: DU-145
M14 = test system: M14
SK-MEL-2 = test system: SK-MEL-2
NCI-H226 = test system: NCI-H226
OVCAR-8 = test system: OVCAR-8
A549 = test system: A549
MCF7 = test system: MCF7
NCI/ADR-RES = test system: NCI/ADR-RES
OVCAR-5 = test system: OVCAR-5
CAKI-1 = test system: CAKI-1
NCI-H522 = test system: NCI-H522
SNB-75 = test system: SNB-75

Structure (SMILES)	GI50 (SW-620)	GI50 (U-251)	GI50 (MOLT-4)	GI50 (NCI-H23)	GI50 (Hs-578T)	GI50 (EKVX)	GI50 (CCRF-CEM)	GI50 (DU-145)	GI50 (M14)	GI50 (SK-MEL-2)	GI50 (NCI-H226)	GI50 (OVCAR-8)	GI50 (A549)	GI50 (MCF7)	GI50 (NCI/ADR-RES)	GI50 (OVCAR-5)	GI50 (CAKI-1)	GI50 (NCI-H522)	GI50 (SNB-75)
COC(=O)[C@@]1(C)CCC[C@]2(C(=O)O)C3Cc4occc4[C@H](C)[C@@H]3CCC21 (stereo partly drawn)	36 µM (inactive)	31.1 µM (inactive)	29.2 µM (inactive)	> 100 µM (inactive)	29.4 µM (inactive)	39.1 µM (inactive)	22.3 µM (inactive)	44.2 µM (inactive)	76.4 µM (inactive)	51.2 µM (inactive)	84.3 µM (inactive)	68.1 µM (inactive)	38.5 µM (inactive)	> 10 µM (inactive)	25.6 µM (inactive)	> 100 µM (inactive)			
O=Cc1ccc2[nH]c(=O)oc2c1	> 100 µM (inactive)	84.5 µM (inactive)	60.4 µM (inactive)	> 100 µM (inactive)	> 100 µM (inactive)	> 100 µM (inactive)	42.3 µM (inactive)	> 100 µM (inactive)	> 100 µM (inactive)	> 100 µM (inactive)	> 100 µM (inactive)	> 100 µM (inactive)		> 100 µM (inactive)	> 100 µM (inactive)	> 100 µM (inactive)	> 100 µM (inactive)		
COc1ccccc1NC(=O)C(C#N)=C(SC)SC	> 100 µM (inactive)	> 100 µM (inactive)	> 100 µM (inactive)	> 100 µM (inactive)	> 100 µM (inactive)	> 100 µM (inactive)	89.5 µM (inactive)	> 100 µM (inactive)	> 100 µM (inactive)	> 100 µM (inactive)	> 100 µM (inactive)		> 100 µM (inactive)	> 100 µM (inactive)		> 100 µM (inactive)	61 µM (inactive)	> 100 µM (inactive)	
O=C1CNc2cc(N3CCOCC3)ccc2N1	> 100 µM (inactive)	> 100 µM (inactive)	> 100 µM (inactive)	> 100 µM (inactive)	57.3 µM (inactive)	2.91 µM (inactive)	> 100 µM (inactive)	> 100 µM (inactive)	> 100 µM (inactive)	> 100 µM (inactive)	> 100 µM (inactive)	> 100 µM (inactive)	> 100 µM (inactive)		> 100 µM (inactive)	> 100 µM (inactive)	> 100 µM (inactive)	> 100 µM (inactive)	> 100 µM (inactive)
OC1C2C=CCC1CCC2 (stereo not drawn)	> 100 µM (inactive)	> 100 µM (inactive)	> 100 µM (inactive)	> 100 µM (inactive)		> 100 µM (inactive)	> 100 µM (inactive)		> 100 µM (inactive)	> 100 µM (inactive)	> 100 µM (inactive)	> 100 µM (inactive)	> 100 µM (inactive)			> 100 µM (inactive)	> 100 µM (inactive)	> 100 µM (inactive)	> 100 µM (inactive)
O=C(O)CC[N+]1=CCC(c2ccccc2)(c2ccccc2)O1	> 100 µM (inactive)	> 100 µM (inactive)	> 100 µM (inactive)	> 100 µM (inactive)	> 100 µM (inactive)	> 100 µM (inactive)		> 100 µM (inactive)	> 100 µM (inactive)	> 100 µM (inactive)	> 100 µM (inactive)	> 100 µM (inactive)	> 100 µM (inactive)	> 100 µM (inactive)		> 100 µM (inactive)	> 100 µM (inactive)	> 100 µM (inactive)	44.1 µM (inactive)
CCn1c2ccccc2c2ccc(C3C(C(=O)OC)=C(C)NC(C)=C3C(=O)OC)cc21	66.1 µM (inactive)	67.8 µM (inactive)	28.2 µM (inactive)	56 µM (inactive)		45.6 µM (inactive)	30.4 µM (inactive)	> 100 µM (inactive)			33 µM (inactive)	49.3 µM (inactive)	46.6 µM (inactive)	27 µM (inactive)	38.5 µM (inactive)	> 100 µM (inactive)	31 µM (inactive)		51.5 µM (inactive)
CC(C)(C)/N=C1\C(=O)C2(C)CCC1C2(C)C (stereo not drawn)	> 100 µM (inactive)	> 100 µM (inactive)		> 100 µM (inactive)		> 100 µM (inactive)		> 100 µM (inactive)	> 100 µM (inactive)	> 100 µM (inactive)	> 100 µM (inactive)	> 100 µM (inactive)	> 100 µM (inactive)	16.8 µM (inactive)	> 100 µM (inactive)	> 100 µM (inactive)	> 100 µM (inactive)		
CC1(C)CCC[C@]2(C)[C@@H]1CC[C@@]13O[C@@H]1C1=C(CO)C(=O)OC1=C[C@@H]23	18.9 µM (inactive)	24.4 µM (inactive)	17.3 µM (inactive)	17.5 µM (inactive)		13.9 µM (inactive)		18.4 µM (inactive)	15.8 µM (inactive)	22.8 µM (inactive)	15.7 µM (inactive)		10.4 µM (inactive)	26.4 µM (inactive)	15.8 µM (inactive)	9.71 µM (inactive)	18.8 µM (inactive)	10.1 µM (inactive)	30.5 µM (inactive)
COc1cc(/C=C2\C(=O)N(c3cc(Cl)ccc3Cl)C(c3ccccc3)S2(=O)=O)cc(OC)c1OC (stereo not drawn)	33.7 µM (inactive)	86.1 µM (inactive)	25.1 µM (inactive)	96.4 µM (inactive)		29.3 µM (inactive)	42.9 µM (inactive)	> 100 µM (inactive)	40.6 µM (inactive)	> 100 µM (inactive)	25.4 µM (inactive)	> 100 µM (inactive)	> 100 µM (inactive)	27 µM (inactive)	34.1 µM (inactive)	38.5 µM (inactive)	> 100 µM (inactive)	29.5 µM (inactive)	61.1 µM (inactive)
CO/N=C(\C)CCC#Cc1ccccc1C(=O)OC	> 10 µM (inactive)	> 10 µM (inactive)	> 10 µM (inactive)	> 10 µM (inactive)	> 10 µM (inactive)	> 10 µM (inactive)	> 10 µM (inactive)	> 10 µM (inactive)	> 10 µM (inactive)	> 10 µM (inactive)	> 10 µM (inactive)	> 10 µM (inactive)	> 10 µM (inactive)	> 10 µM (inactive)	> 10 µM (inactive)	> 10 µM (inactive)	> 10 µM (inactive)		
COC(=O)CNC(=O)Nc1cc(N2C(=O)ON3C2C(C)(C)N(O)C3(C)C)ccc1C (stereo not drawn)	> 100 µM (inactive)	> 100 µM (inactive)	> 100 µM (inactive)	> 100 µM (inactive)	> 100 µM (inactive)	> 100 µM (inactive)	> 100 µM (inactive)		> 100 µM (inactive)	59.4 µM (inactive)	> 100 µM (inactive)	> 100 µM (inactive)	> 100 µM (inactive)	> 100 µM (inactive)	> 100 µM (inactive)	> 100 µM (inactive)	> 100 µM (inactive)	> 100 µM (inactive)	> 100 µM (inactive)
Cc1cccc(C)c1NC(=O)C(=O)CC(=O)/C=C/c1ccccc1	> 100 µM (inactive)	> 100 µM (inactive)	> 100 µM (inactive)	> 100 µM (inactive)	> 100 µM (inactive)	> 100 µM (inactive)	> 100 µM (inactive)		> 100 µM (inactive)	> 100 µM (inactive)	> 100 µM (inactive)	> 100 µM (inactive)	> 100 µM (inactive)	> 100 µM (inactive)	> 100 µM (inactive)	> 100 µM (inactive)	> 100 µM (inactive)	> 100 µM (inactive)	> 100 µM (inactive)
CCOC(=O)C1Nc2ccccc2[C@H]2OCC[C@@H]12 (stereo partly drawn)	> 100 µM (inactive)	> 100 µM (inactive)	> 100 µM (inactive)	> 100 µM (inactive)		> 100 µM (inactive)	> 100 µM (inactive)		> 100 µM (inactive)	0.0596 µM (active)	> 100 µM (inactive)	> 100 µM (inactive)	> 100 µM (inactive)			> 100 µM (inactive)	> 100 µM (inactive)	> 100 µM (inactive)	> 100 µM (inactive)
CN1CCN(c2nc3cc(F)ccc3n3cccc23)CC1	30.5 µM (inactive)	41.5 µM (inactive)	23.1 µM (inactive)	36 µM (inactive)	31.4 µM (inactive)	33.7 µM (inactive)	29.8 µM (inactive)		18 µM (inactive)		13.7 µM (inactive)	51.8 µM (inactive)	36.9 µM (inactive)	15.1 µM (inactive)	50.7 µM (inactive)	51.2 µM (inactive)	22 µM (inactive)	46.5 µM (inactive)	29 µM (inactive)
Nc1cc(OCC2CCCCC2)nc(N)n1	> 100 µM (inactive)	> 100 µM (inactive)	82.2 µM (inactive)	84.5 µM (inactive)	> 100 µM (inactive)	57.1 µM (inactive)	> 100 µM (inactive)	> 100 µM (inactive)	> 100 µM (inactive)	> 100 µM (inactive)	> 100 µM (inactive)	> 100 µM (inactive)	93.8 µM (inactive)		> 100 µM (inactive)	> 100 µM (inactive)	> 100 µM (inactive)	> 100 µM (inactive)	61.2 µM (inactive)
COC(=O)C(Cc1cccc(O)c1)NC(=O)C(CC(=O)OCc1ccccc1)NC(=O)OCc1ccccc1 (stereo not drawn) (Cbz-Asp(OBn)-[mTyr]-OMe; configuration not given here)	> 100 µM (inactive)	> 100 µM (inactive)	32.1 µM (inactive)	> 100 µM (inactive)	> 100 µM (inactive)	> 100 µM (inactive)			> 100 µM (inactive)	> 100 µM (inactive)	> 100 µM (inactive)	> 100 µM (inactive)	> 100 µM (inactive)	> 100 µM (inactive)		> 100 µM (inactive)			> 100 µM (inactive)
